System: MV-4-11 cells
Experiment: Gene expression microarray analysis (Affymetrix PrimeView) and GSEA
Format: cell-based, human
Parameters: RFU PODN (11730768_x_at) / Fold change /veh PODN (11730768_x_at) / RFU LINC00158 (11744669_a_at) / Fold change /veh LINC00158 (11744669_a_at) / RFU DUSP10 (11751237_a_at) / Fold change /veh DUSP10 (11751237_a_at) / RFU ID3 (11757404_x_at) / Fold change /veh ID3 (11757404_x_at) / RFU PLEKHG5 (11737974_s_at) / Fold change /veh PLEKHG5 (11737974_s_at) / RFU LRRC4B (11730491_at) / Fold change /veh LRRC4B (11730491_at) / RFU GIMAP4 (11747438_a_at) / Fold change /veh GIMAP4 (11747438_a_at) / RFU KRT8 (11758183_x_at) / Fold change /veh KRT8 (11758183_x_at) / RFU CNN1 (11734310_a_at) / Fold change /veh CNN1 (11734310_a_at) / RFU VPS37D (11726825_at) / Fold change /veh VPS37D (11726825_at) / RFU C10orf10 (11716522_x_at) / Fold change /veh C10orf10 (11716522_x_at) / RFU KIR2DL2 /// KIR2DL4 /// KIR2DL5A /// KIR2DL5B /// KIR2DS1 /// KIR2DS2 /// KIR2DS3 /// KIR2DS4 /// KIR3DL3 /// KIR3DL3 /// KIR3DS1 (11738374_at) / Fold change /veh KIR2DL2 /// KIR2DL4 /// KIR2DL5A /// KIR2DL5B /// KIR2DS1 /// KIR2DS2 /// KIR2DS3 /// KIR2DS4 /// KIR3DL3 /// KIR3DL3 /// KIR3DS1 (11738374_at) / RFU C1QL1 (11718748_at) / Fold change /veh C1QL1 (11718748_at) / RFU TMPRSS4 (11747572_a_at) / Fold change /veh TMPRSS4 (11747572_a_at) / RFU HAMP (11756126_x_at) / Fold change /veh HAMP (11756126_x_at) / RFU RNFT2 (11725882_a_at) / Fold change /veh RNFT2 (11725882_a_at) / RFU NR4A2 (11747474_a_at) / Fold change /veh NR4A2 (11747474_a_at) / RFU ABCC12 (11746883_a_at) / Fold change /veh ABCC12 (11746883_a_at) / RFU TMEM136 (11760407_x_at) / Fold change /veh TMEM136 (11760407_x_at) / RFU CLDN22 /// WWC2 (11732394_at) / Fold change /veh CLDN22 /// WWC2 (11732394_at) / RFU HLA-DPB1 (11760878_x_at) / Fold change /veh HLA-DPB1 (11760878_x_at) / RFU SPINT1 (11716480_a_at) / Fold change /veh SPINT1 (11716480_a_at) / RFU GAP43 (11754022_s_at) / Fold change /veh GAP43 (11754022_s_at) / RFU A4GNT (11735810_at) / Fold change /veh A4GNT (11735810_at) / RFU PRB3 (11715151_x_at) / Fold change /veh PRB3 (11715151_x_at) / RFU TUBB4B (11761932_at) / Fold change /veh TUBB4B (11761932_at) / RFU CAPN14 (11732068_a_at) / Fold change /veh CAPN14 (11732068_a_at) / RFU TMCC2 (11721928_a_at) / Fold change /veh TMCC2 (11721928_a_at) / RFU IRGQ (11745062_a_at) / Fold change /veh IRGQ (11745062_a_at) / RFU FAM174B (11720279_a_at) / Fold change /veh FAM174B (11720279_a_at) / RFU TMPRSS4 (11748680_a_at) / Fold change /veh TMPRSS4 (11748680_a_at) / RFU FAM212B (11763350_a_at) / Fold change /veh FAM212B (11763350_a_at) / RFU PLEKHG5 (11743358_a_at) / Fold change /veh PLEKHG5 (11743358_a_at) / RFU ZSCAN30 (11745921_a_at) / Fold change /veh ZSCAN30 (11745921_a_at) / RFU CMKLR1 (11741424_a_at) / Fold change /veh CMKLR1 (11741424_a_at) / RFU LOC101060620 /// MAPK8IP1 (11723275_at) / Fold change /veh LOC101060620 /// MAPK8IP1 (11723275_at) / RFU SPTSSB (11747773_x_at) / Fold change /veh SPTSSB (11747773_x_at) / RFU PRSS12 (11739890_at) / Fold change /veh PRSS12 (11739890_at) / RFU BIN1 (11741810_x_at) / Fold change /veh BIN1 (11741810_x_at) / RFU WNT11 (11732464_a_at) / Fold change /veh WNT11 (11732464_a_at) / RFU C10orf10 (11716521_a_at) / Fold change /veh C10orf10 (11716521_a_at) / RFU C5orf56 (11738089_at) / Fold change /veh C5orf56 (11738089_at) / RFU CYB561 (11721691_x_at) / Fold change /veh CYB561 (11721691_x_at) / RFU ANKRD19P (11752326_a_at) / Fold change /veh ANKRD19P (11752326_a_at) / RFU OR2T12 /// OR2T33 /// OR2T8 (11738714_s_at) / Fold change /veh OR2T12 /// OR2T33 /// OR2T8 (11738714_s_at) / RFU VCAN (11748164_a_at) / Fold change /veh VCAN (11748164_a_at) / RFU JSRP1 (11732532_at) / Fold change /veh JSRP1 (11732532_at) / RFU KRTAP10-11 (11738290_x_at) / Fold change /veh KRTAP10-11 (11738290_x_at) / RFU MYO3A (11730013_a_at) / Fold change /veh MYO3A (11730013_a_at) / RFU EBF3 (11725865_a_at) / Fold change /veh EBF3 (11725865_a_at) / RFU CAMK2N1 (11719241_x_at) / Fold change /veh CAMK2N1 (11719241_x_at) / RFU C5orf56 (11738088_a_at) / Fold change /veh C5orf56 (11738088_a_at) / RFU OLFML3 (11715873_a_at) / Fold change /veh OLFML3 (11715873_a_at) / RFU LOC100653217 /// NTM (11731650_a_at) / Fold change /veh LOC100653217 /// NTM (11731650_a_at) / RFU MAPK11 (11762145_a_at) / Fold change /veh MAPK11 (11762145_a_at) / RFU FIZ1 (11724087_x_at) / Fold change /veh FIZ1 (11724087_x_at) / RFU OASL (11726364_x_at) / Fold change /veh OASL (11726364_x_at) / RFU SOX15 (11748057_x_at) / Fold change /veh SOX15 (11748057_x_at) / RFU CD79A (11719716_a_at) / Fold change /veh CD79A (11719716_a_at) / RFU HIST1H1D (11736915_at) / Fold change /veh HIST1H1D (11736915_at) / RFU CASKIN2 (11723855_a_at) / Fold change /veh CASKIN2 (11723855_a_at) / RFU LOC730098 (11760151_x_at) / Fold change /veh LOC730098 (11760151_x_at) / RFU OR4N2 (11742367_at) / Fold change /veh OR4N2 (11742367_at) / RFU PRRT2 (11749266_a_at) / Fold change /veh PRRT2 (11749266_a_at) / RFU SNX32 (11753110_a_at) / Fold change /veh SNX32 (11753110_a_at) / RFU CDHR5 (11726645_a_at) / Fold change /veh CDHR5 (11726645_a_at) / RFU RCAN1 (11760418_a_at) / Fold change /veh RCAN1 (11760418_a_at) / RFU FAM167A (11723789_a_at) / Fold change /veh FAM167A (11723789_a_at) / RFU FAM26E (11764081_at) / Fold change /veh FAM26E (11764081_at) / RFU ISYNA1 (11749810_s_at) / Fold change /veh ISYNA1 (11749810_s_at) / RFU ACY1 (11761880_at) / Fold change /veh ACY1 (11761880_at) / RFU 11764098_at / Fold change /veh 11764098_at / RFU SAMD14 (11745864_x_at) / Fold change /veh SAMD14 (11745864_x_at) / RFU NPB (11741838_a_at) / Fold change /veh NPB (11741838_a_at) / RFU TMPRSS6 (11731388_a_at) / Fold change /veh TMPRSS6 (11731388_a_at) / RFU KRTAP10-2 (11738614_at) / Fold change /veh KRTAP10-2 (11738614_at) / RFU ARHGAP8 /// PRR5-ARHGAP8 (11727945_x_at) / Fold change /veh ARHGAP8 /// PRR5-ARHGAP8 (11727945_x_at) / RFU KRTAP5-7 /// NADSYN1 (11734609_at) / Fold change /veh KRTAP5-7 /// NADSYN1 (11734609_at) / RFU RASL12 (11751679_a_at) / Fold change /veh RASL12 (11751679_a_at) / RFU CDKN2B (11736163_a_at) / Fold change /veh CDKN2B (11736163_a_at) / RFU PRF1 (11729649_at) / Fold change /veh PRF1 (11729649_at) / RFU, ZNF638 /// ZNF638-IT1 / Fold change vs veh, ZNF638 /// ZNF638-IT1 / RFU, PANK3 / Fold change vs veh, PANK3 / RFU, SH3YL1 / Fold change vs veh, SH3YL1 / RFU, ZEB2 / Fold change vs veh, ZEB2 / RFU, NRIP1 / Fold change vs veh, NRIP1 / RFU, PTTG1IP / Fold change vs veh, PTTG1IP / RFU, CAPN2 / Fold change vs veh, CAPN2 / RFU, MED14 / Fold change vs veh, MED14 / RFU, SNORA58 / Fold change vs veh, SNORA58 / RFU, C1orf63 / Fold change vs veh, C1orf63 / RFU, LRRFIP1 / Fold change vs veh, LRRFIP1 / RFU, NDUFAF7 / Fold change vs veh, NDUFAF7 / RFU, SLC12A2 / Fold change vs veh, SLC12A2 / RFU, IBTK / Fold change vs veh, IBTK / RFU, ESF1 / Fold change vs veh, ESF1 / Fold change vs veh, TMEM50B / RFU, TAOK1 / Fold change vs veh, TAOK1 / RFU, ACBD3 / Fold change vs veh, ACBD3 / RFU, TMA16 / Fold change vs veh, TMA16 / RFU, RWDD3 / Fold change vs veh, RWDD3 / RFU, BCAT1 / Fold change vs veh, BCAT1 / RFU, EDEM3 / Fold change vs veh, EDEM3 / RFU, TMEM33 / Fold change vs veh, TMEM33 / RFU, WDR75 / Fold change vs veh, WDR75 / RFU, AHCTF1 / Fold change vs veh, AHCTF1 / RFU, TFRC / Fold change vs veh, TFRC / RFU, ZDHHC17 / Fold change vs veh, ZDHHC17 / RFU, NOM1 / Fold change vs veh, NOM1 / RFU, ARL8B / Fold change vs veh, ARL8B / RFU, ZBTB11 / Fold change vs veh, ZBTB11 / RFU, TAMM41 / Fold change vs veh, TAMM41 / RFU, KIAA1704 /// LOC100996395 / Fold change vs veh, KIAA1704 /// LOC100996395 / RFU, ING1 / Fold change vs veh, ING1 / RFU, TRMT61B / Fold change vs veh, TRMT61B / RFU, FUBP3 / Fold change vs veh, FUBP3 / RFU, TP53 / Fold change vs veh, TP53 / RFU, TNKS2 / Fold change vs veh, TNKS2 / RFU, ZFP14 / Fold change vs veh, ZFP14 / RFU, ACTR2 / Fold change vs veh, ACTR2 / RFU, PPP3R1 / Fold change vs veh, PPP3R1 / RFU, PIK3R1 / Fold change vs veh, PIK3R1 / RFU, HNRNPA1 / Fold change vs veh, HNRNPA1 / RFU, RNF170 / Fold change vs veh, RNF170 / RFU, ZNF28 / Fold change vs veh, ZNF28 / RFU, RNGTT / Fold change vs veh, RNGTT / RFU, OGT / Fold change vs veh, OGT / RFU, BRD1 / Fold change vs veh, BRD1 / RFU, MARS / Fold change vs veh, MARS / RFU, ZNF655 / Fold change vs veh, ZNF655 / RFU, FAHD1 / Fold change vs veh, FAHD1 / RFU, BDP1 / Fold change vs veh, BDP1 / RFU, LRRCC1 / Fold change vs veh, LRRCC1 / RFU, ARID1A / Fold change vs veh, ARID1A / RFU, ZNF146 / Fold change vs veh, ZNF146 / RFU, ZNF330 / Fold change vs veh, ZNF330 / RFU, GPN3 / Fold change vs veh, GPN3 / RFU, C9orf123 / Fold change vs veh, C9orf123 / RFU, N4BP2L2 / Fold change vs veh, N4BP2L2 / RFU, ARFIP1 / Fold change vs veh, ARFIP1 / RFU, FAM179B / Fold change vs veh, FAM179B / RFU, BCL10 / Fold change vs veh, BCL10 / RFU, UHRF1BP1L / Fold change vs veh, UHRF1BP1L / RFU, BET1 / Fold change vs veh, BET1 / RFU, CNOT2 / Fold change vs veh, CNOT2 / RFU, ZNF268 / Fold change vs veh, ZNF268 / Fold change vs veh, ZNF507 / RFU, DGCR2 / Fold change vs veh, DGCR2 / RFU, WDSUB1 / Fold change vs veh, WDSUB1 / Fold change vs veh, HSP90B1 /// MIR3652 / RFU, ADSS / Fold change vs veh, ADSS / RFU, GK / Fold change vs veh, GK / RFU, ZNF148 / Fold change vs veh, ZNF148 / RFU, TAF9 / Fold change vs veh, TAF9 / RFU, SLC1A5 / Fold change vs veh, SLC1A5 / RFU, SLMO2 / Fold change vs veh, SLMO2 / RFU, ABCC4 / Fold change vs veh, ABCC4 / RFU, LOC101060439 /// RAP1B / Fold change vs veh, LOC101060439 /// RAP1B / RFU, RFX7 / Fold change vs veh, RFX7 / RFU, GTPBP10 / Fold change vs veh, GTPBP10 / RFU, CNEP1R1 / Fold change vs veh, CNEP1R1 / RFU, BIVM-ERCC5 /// ERCC5 / Fold change vs veh, BIVM-ERCC5 /// ERCC5 / RFU, ILF3 / Fold change vs veh, ILF3 / RFU 11762660_at / Fold change /veh 11762660_at / RFU VCAN (11757783_s_at) / Fold change /veh VCAN (11757783_s_at) / RFU DDX43 (11728927_at) / Fold change /veh DDX43 (11728927_at) / RFU KRT8 (11758188_x_at) / Fold change /veh KRT8 (11758188_x_at) / RFU NKD1 (11759106_at) / Fold change /veh NKD1 (11759106_at) / RFU SRD5A1 (11742802_a_at) / Fold change /veh SRD5A1 (11742802_a_at) / RFU TPSAB1 /// TPSB2 (11721975_s_at) / Fold change /veh TPSAB1 /// TPSB2 (11721975_s_at) / RFU GSTM3 (11746129_a_at) / Fold change /veh GSTM3 (11746129_a_at) / RFU IL23R (11737362_x_at) / Fold change /veh IL23R (11737362_x_at) / RFU TMEM51 (11727254_a_at) / Fold change /veh TMEM51 (11727254_a_at) / RFU PIWIL2 (11732686_x_at) / Fold change /veh PIWIL2 (11732686_x_at) / RFU ORM1 (11744905_x_at) / Fold change /veh ORM1 (11744905_x_at) / RFU CCDC152 (11743942_at) / Fold change /veh CCDC152 (11743942_at) / RFU ECM1 (11717891_a_at) / Fold change /veh ECM1 (11717891_a_at) / RFU IL23R (11748794_a_at) / Fold change /veh IL23R (11748794_a_at) / RFU TNFAIP8L3 (11732012_x_at) / Fold change /veh TNFAIP8L3 (11732012_x_at) / RFU MBOAT4 (11741988_at) / Fold change /veh MBOAT4 (11741988_at) / RFU 11764193_at / Fold change /veh 11764193_at / RFU TMEM53 (11763286_at) / Fold change /veh TMEM53 (11763286_at) / RFU MAGEB2 (11727129_at) / Fold change /veh MAGEB2 (11727129_at) / RFU TMEM200A (11744735_a_at) / Fold change /veh TMEM200A (11744735_a_at) / RFU CCDC152 (11751479_a_at) / Fold change /veh CCDC152 (11751479_a_at) / RFU FAM211A (11726209_a_at) / Fold change /veh FAM211A (11726209_a_at) / RFU RGS16 (11746705_a_at) / Fold change /veh RGS16 (11746705_a_at) / RFU VCAN (11755009_s_at) / Fold change /veh VCAN (11755009_s_at) / RFU RHOB (11743442_s_at) / Fold change /veh RHOB (11743442_s_at) / RFU RGS16 (11720943_a_at) / Fold change /veh RGS16 (11720943_a_at) / RFU RGS16 (11720944_at) / Fold change /veh RGS16 (11720944_at) / RFU, VPS4B / Fold change vs veh, VPS4B / RFU, CREB1 / Fold change vs veh, CREB1 / RFU, DNAJC13 / Fold change vs veh, DNAJC13 / RFU, GNAQ / Fold change vs veh, GNAQ / RFU, CDK5R1 / Fold change vs veh, CDK5R1 / RFU, ZRANB3 / Fold change vs veh, ZRANB3 / RFU, CUL4A / Fold change vs veh, CUL4A / RFU, CCNY / Fold change vs veh, CCNY / RFU, UFL1 / Fold change vs veh, UFL1 / RFU, COG3 / Fold change vs veh, COG3 / RFU, DIAPH2 / Fold change vs veh, DIAPH2 / RFU, SKA2 / Fold change vs veh, SKA2 / RFU, AFF3 / Fold change vs veh, AFF3 / RFU, LMF1 / Fold change vs veh, LMF1 / RFU, IPO11 / Fold change vs veh, IPO11 / RFU, DFFB / Fold change vs veh, DFFB / RFU, FOXP1 / Fold change vs veh, FOXP1 / RFU, CARD8 / Fold change vs veh, CARD8 / RFU, STRN3 / Fold change vs veh, STRN3 / RFU, ADK / Fold change vs veh, ADK / RFU, RASSF2 / Fold change vs veh, RASSF2 / RFU, WIPF1 / Fold change vs veh, WIPF1 / RFU, LARP1B / Fold change vs veh, LARP1B / RFU, RASA1 / Fold change vs veh, RASA1 / RFU, RB1 / Fold change vs veh, RB1 / RFU, PPFIA1 / Fold change vs veh, PPFIA1 / RFU, MAT2A / Fold change vs veh, MAT2A / RFU, CCT5 / Fold change vs veh, CCT5 / RFU, WDR92 / Fold change vs veh, WDR92 / RFU, CUX1 / Fold change vs veh, CUX1 / RFU, TTC7A / Fold change vs veh, TTC7A / RFU, TMEM135 / Fold change vs veh, TMEM135 / RFU, DEPTOR / Fold change vs veh, DEPTOR / RFU, CPM / Fold change vs veh, CPM / RFU, DNAJB6 / Fold change vs veh, DNAJB6 / RFU, CACNA2D3 / Fold change vs veh, CACNA2D3 / RFU, DTX4 / Fold change vs veh, DTX4 / RFU, TFCP2 / Fold change vs veh, TFCP2 / RFU, GMCL1 /// GMCL1P1 / Fold change vs veh, GMCL1 /// GMCL1P1 / RFU, AEBP2 / Fold change vs veh, AEBP2 / RFU, SNHG1 /// SNORD22 /// SNORD25 /// SNORD26 /// SNORD27 /// SNORD28 /// SNORD29 /// SNORD31 / Fold change vs veh, SNHG1 /// SNORD22 /// SNORD25 /// SNORD26 /// SNORD27 /// SNORD28 /// SNORD29 /// SNORD31 / Fold change (Aza/veh), C12orf56 (ProbeSet 11735607_a_at) / Fold change (ACY-1035/veh), C12orf56 (ProbeSet 11735607_a_at) / Fold change (Aza/veh), FGFR1OP (ProbeSet 11751329_s_at) / Fold change (ACY-1035/veh), FGFR1OP (ProbeSet 11751329_s_at) / Fold change (Aza/veh), VPS36 (ProbeSet 11739960_a_at) / Fold change (ACY-1035/veh), VPS36 (ProbeSet 11739960_a_at) / RFU SYPL1 (11715823_x_at) / Fold change /veh SYPL1 (11715823_x_at) / RFU IGFBP7 (11715501_s_at) / Fold change /veh IGFBP7 (11715501_s_at) / RFU REEP3 (11722064_at) / Fold change /veh REEP3 (11722064_at) / RFU IGLL1 (11728026_x_at) / Fold change /veh IGLL1 (11728026_x_at): dose or concentration left out as unconfirmed
Conditions: ProbeSet 11745789_a_at; LIST D

Nc1ccc(-c2cccs2)cc1NC(=O)c1ccc2c(c1)cc(C1CC1)n2CCN1CCOCC1 [ACY-1035]
RFU, TMEM135: 185.11 RFU
